# From article PMC6260619, “Selective Cytotoxicity of Goniothalamin against Hepatoblastoma HepG2 Cells” (Molecules, 2011)
# Values joined by “and” are separate entries in the source; they are usually repeats but may differ in a detail not shown here. Equal entries are not always repeated.
# Tests used:
# Type in all cases: cell-based, human
# HepG2 cells [1] = assay: MTT cytotoxicity assay, HepG2; settings: for IC50: read-out: IC50 from MTT
# Description: (§1) HepG2 and Chang cells were plated at 1 × 10^4 cells/well by adding 200 μL of a 5 × 10^4 cells/mL suspension to each well of a 96-well tissue culture plate. The plate was incubated for a sufficient time to assure attachment and 40% to 60% confluency. […] The last row was left as an untreated control. The plates were incubated at 37 °C, 5% CO2, for 24, 48 and 72 hours, respectively. After incubation with compounds, the media was aspirated off and replaced with fresh media. Then, MTT solution (20 μL) for a total volume of 200 μL was added in every well and incubated for 4 to 6 hours at 37 °C with 5% CO2. After that, MTT-containing medium was removed gently and replaced with DMSO (200 μL per well) to mix the formazan crystals until dissolved. The plates were read on microtiter plate reader at 570 nm. For each compound tested, the IC50 (concentration of drug needed to inhibit cell growth by 50%) is generated from the dose-response curves for each cell line.
# Chang cells [2] = assay: MTT cytotoxicity assay, Chang; settings: for IC50: read-out: IC50 from MTT
# Description: as §1
# HepG2 cells [3] = assay: LDH leakage assay, HepG2; settings: for IC50: Homo sapiens, read-out: IC50 from LDH
# Description: (§2) Measurement of LDH activity is another indicator of cell viability through evaluation of the cell membrane permeability. The enzyme activity is measured externally, as it leaks from dead cells which lose their membrane integrity. LDH leakage detection is based on the loss of NADH due to its oxidation to NAD^+, resulting in the conversion of pyruvate to lactate. Untreated cells should retain LDH in their cells and have minimal loss over the time of the assay. Triton X-100-treated cells that give the maximum loss of LDH were used as the positive control in this assay.
# (§3) To determine the effect of goniothalamin on membrane permeability in HepG2 and Chang cell lines, a lactate dehydrogenase (LDH) release assay was used. The cells were seeded in 96-well culture plates at a density of 2 × 10^4 cells/well in 100 μL volume and allowed to grow for 18 hours before treatment. After treatment, the plates were incubated for 24, 48 and 72 hours, respectively. Then, the supernatant (40 μL) was transferred to a new 96 well to determine LDH release and 6% triton X-100 (40 μL) was added to the original plate for determination of total LDH. An aliquot of 0.1 M potassium phosphate buffer (100 μL, pH 7.5) containing 4.6 mM pyruvic acid was mixed to the supernatant using repeated pipetting. Then, 0.1 M potassium phosphate buffer (100 μL, pH 7.5) containing 0.4 mg/mL reduced β-NADH was added to the wells. The kinetic changes were read for 1 min using ELISA microplate reader in absorbance at wavelength 340 nm. This procedure was repeated with 40 μL of the total cell lysate to determine total LDH U/well. A change of 0.001 absorbance units/min is equivalent to 1 U/L of LDH activity. The percentage of LDH release was determined by dividing the LDH released into the media by the total LDH following cell lysis in the same well.
# Chang cells [4] = assay: LDH leakage assay, Chang; settings: for IC50: read-out: IC50 from LDH
# Description: as §2, §3
# Chang cells [5] = assay: BrdU cell proliferation ELISA, Chang
# Description: The inhibition of goniothalamin on cellular DNA synthesis in Chang cells was also measured by BrdU incorporation.
# To confirm anti-proliferative effects in goniothalamin-treated cells, BrdU cell proliferation kit was used. HepG2 and Chang cells were seeded at 1.5 × 10^5 cells/mL in a final volume of 100 μL in a 96-well culture dish and incubated overnight to allow the cells to adhere to the dish. Each sample was assayed in triplicate. Besides, the control samples include a blank (no cells) and background (cells without BrdU) was also prepared. […] Then, BrdU label (20 μL, diluted by 1/2,000 in media) was added to each well and incubated for 24 h at 37 °C. The media was discarded and replaced by fix/denaturing solution (200 μL). The plate was incubated for 30 min at room temperature. The fix/denaturing solution was removed by inverting the plate. Then, BrdU antibody (100 μL, diluted by 1/100 in dilution buffer) was added to each well and left for 1 hour at room temperature. The cells were washed 3 times with wash buffer. After that, secondary antibody (100 μL, anti-mouse IgG HRP conjugated) was added to each well for 30 min. The washing step was done three times with wash buffer and once with distilled water. The distilled water was removed and substrate solution (100 μL) was added to each well. The plate was left for 15 min at room temperature in the dark condition. Finally, stop solution (100 μL) was added to the wells and absorbance measured at 450–540 nm.
# HepG2 cells [6] = assay: Trypan blue dye exclusion viable cell count, HepG2
# Description: As supported by MTT and LDH results, goniothalamin inhibited cell proliferation towards HepG2 in a time- and dose-dependent manner as shown in the BrdU incorporation ELISA method. The effects of goniothalamin on HepG2 and Chang cell growth were also analyzed by viable cell counts using trypan blue dye exclusion assay for 24, 48 and 72 hours after treatment with different doses of goniothalamin. […] The ratio between viable cell numbers in goniothalamin-treated cells and control cells was reported as the Viablity Index (VI, Figure 5A and Figure 5B).
# A half mL aliquot of cell suspension (obtained from treated and non-treated HepG2 and Chang cells), was mixed with 0.5 mL of 0.4% trypan blue dye and left for 5 min at room temperature). The cells were counted using the hemacytometer and the percentage of dead cells was determined.
smiles,measurement,setting,value
"O=C1C=CC[C@H](/C=C/c2ccccc2)O1 [Goniothalamin, 5-hydroxy-7-phenylhepta-2,6-dienoic acid lactone]",IC50,"HepG2 cells [1]; HepG2, 72 hours",4.6 µM and 4.63 µM
same,IC50,"HepG2 cells [1]; Homo sapiens, HepG2, 24 h",9.2 µM
same,IC50,"HepG2 cells [1]; Homo sapiens, HepG2, 48 h",8.3 µM
same,selectivity index (SI),"HepG2 cells [1]; IC50 for normal cell line (Chang)/IC50 for cancerous cell line (HepG2), MTT, 72 hours",7.6
same,IC50-GTN / IC50-Doxo,"HepG2 cells [1]; MTT, 72 hours, value fits HepG2 IC50s",4.4
same,decrease of cell growth vs untreated control,"Chang cells [2]; 37.5 μM, 24 hours",39%
same,decrease of cell growth vs untreated control,"Chang cells [2]; 37.5 μM, 48 hours",44%
same,decrease of cell growth vs untreated control,"Chang cells [2]; 37.5 μM, 72 hours",54%
same,decrease of cell growth vs untreated control,"Chang cells [2]; 75 μM, 24 hours",approximately 49%
same,decrease of cell growth vs untreated control,"Chang cells [2]; 75 μM, 48 hours",~53%
same,decrease of cell growth vs untreated control,"Chang cells [2]; 75 μM, 72 hours",~63%
same,IC50,Chang cells [2]; 72 hours,35 µM
same,IC50,"Chang cells [2]; Homo sapiens, 24 h",79.1 µM
same,IC50,"Chang cells [2]; Homo sapiens, 48 h",63.8 µM
same,IC50,"Chang cells [2]; Homo sapiens, 72 h",35 µM
same,death percentage compared to Triton X-100-treated cells,"HepG2 cells [3]; HepG2, 4.6 µM, 72 hours",50%
same,LDH leakage,"HepG2 cells [3]; HepG2, 9.4 µM, 72 hours, relative to Triton X-100 maximum",62%
same,LDH leakage,"HepG2 cells [3]; HepG2, 37.5 µM, 24 hours",60%
same,LDH leakage,"HepG2 cells [3]; HepG2, 37.5 µM, 48 hours",70%
same,LDH leakage,"HepG2 cells [3]; HepG2, 37.5 µM, 72 hours",70%
same,LDH leakage,"HepG2 cells [3]; HepG2, 150 µM, 24 hours",80%
same,LDH leakage,"HepG2 cells [3]; HepG2, 150 µM, 48 hours",86%
same,LDH leakage,"HepG2 cells [3]; HepG2, 150 µM, 72 hours",93%
same,IC50,"HepG2 cells [3]; HepG2, 24 hours",13.4 µM
same,IC50,"HepG2 cells [3]; HepG2, 48 hours",8.29 µM
same,IC50,"HepG2 cells [3]; HepG2, 72 hours",5.2 µM
same,increase in LDH leakage,"Chang cells [4]; Chang, 4.7 µM, 72 hours",19%
same,loss of viability (LDH leakage),"Chang cells [4]; Chang, 37.5 µM",≤ 52%
same,toxicity (LDH leakage),"Chang cells [4]; Chang, 2.3, 4.7 or 9.4 µM, on completion of incubation",no significant toxicity
same,IC50,"Chang cells [4]; Chang, 72 hours",32.5 µM
same,IC50,"Chang cells [4]; Homo sapiens, 24 h, Chang, 24 hours",69.6 µM
same,IC50,"Chang cells [4]; Homo sapiens, 48 h, Chang, 48 hours",55.1 µM
same,IC50,"Chang cells [4]; Homo sapiens, 72 h, Chang, 72 hours",32.5 µM
same,percentage of cells incorporating BrdU in comparison with untreated cells,"Chang cells [5]; IC50, 24 hours",62.4%
same,percentage of cells incorporating BrdU in comparison with untreated cells,"Chang cells [5]; IC50, 72 hours",23.5%
same,decrease in cell proliferation compared to untreated cells (BrdU),"Chang cells [5]; lowest concentration (2.3 µM), 72 hours",2%
same,cell proliferation retained (BrdU),"Chang cells [5]; lowest concentration (2.3 µL as printed), 72 hours",97.6%
same,"viability (cell count, trypan blue)","HepG2 cells [6]; HepG2, 2.3 µM",significantly inhibited
same,Viability Index,"HepG2 cells [6]; HepG2, at IC50, 72 hours",52 ± 1.73%
same,inhibition at 4.6 µM,"HepG2 cells [6]; Homo sapiens, HepG2, 4.6 µM, 72 hours, read-out: inhibition of cell growth (trypan blue)",52%
same,inhibition at 8.3 µM,"HepG2 cells [6]; Homo sapiens, HepG2, 8.3 µM, 48 hours, read-out: inhibition of cell growth (trypan blue)",64%
same,inhibition at 9.2 µM,"HepG2 cells [6]; Homo sapiens, HepG2, 9.2 µM, 24 hours, read-out: inhibition of cell growth (trypan blue)",79%
